From the supplement of paper PMC11451515

Tests used:
Settings in all cases: 48 h
[1] = tested on: P12-Ichikawa; experiment: AUC of viability dose-response curve (% viability x log10 dose units); higher = less sensitive
Summary of the method: (§1)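 Leukemia cells adapted to each medium were seeded in 1536-well plates (500 or 1000 cells/well) and given library compounds in DMSO for 48 h at 37°C. The 11 threefold doses spanned 47 μM to 0.79 nM, and CellTiter-Glo One luminescence was normalised per plate to DMSO and cell-free wells before four-parameter log-logistic fitting on log10 dose. Area under the curve was integrated with the trapezoidal rule, scaling curves above full viability and removing curves that failed quality control.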

[2] = tested on: SEM cells; experiment: as above
Summary of the method: as §1

[3] = tested on: NOMO1; experiment: as above
Summary of the method: as §1

[4] = tested on: SEM cells; experiment: cell viability relative to DMSO control; higher = less cytotoxic
Summary of the method: (§2)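 Leukemia cells (NOMO1 or SEM, 500 cells/well; P12-Ichikawa, 1000 cells/well) were seeded in 5 μl in 1536-well plates after at least four passages of adaptation to each medium. They received library compounds in DMSO by pin dosing, 11 threefold points from 47 μM to 0.79 nM. Luminescence with CellTiter-Glo One was read after 48 h at 37°C. Viability is stated per plate relative to DMSO wells, with cell-free wells as background.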

[5] = tested on: P12-Ichikawa; experiment: as above
Summary of the method: as §2

[6] = tested on: NOMO1; experiment: as above
Summary of the method: as §2

CC1Cc2ccccc2N1NC(=O)c1ccc(Cl)c([S+](N)(=O)[O-])c1 (stereo unspecified)
AUC of viability dose-response curve
Settings | [1] | [2] | [3]
HPLM + 10% dialyzed FBS | 463 | 474 | 467
RPMI 5 mM glucose + 10% FBS | 473 | 426 | 445
RPMI 5 mM glucose + 10% dialyzed FBS | 452 | 472 | 434

cell viability [%], [4]
Settings | HPLM + 10% dialyzed FBS | RPMI 5 mM glucose + 10% dialyzed FBS
0.000781 µM | 111 | 107
0.00234 µM | 108 | 109
0.00702 µM | 104 | 117
0.0211 µM | 106 | 106
0.0632 µM | 94.3 | 102
0.19 µM | 113 | 134
0.569 µM | 128 | 100
1.71 µM | 103 | 97
5.12 µM | 112 | 113
15.4 µM | 116 | 111
46.1 µM | 97.9 | 107

Clc1ccc(C(Cn2ccnc2)OCc2c(Cl)cccc2Cl)c(Cl)c1 (stereo unspecified)
AUC of viability dose-response curve
Settings | [1] | [2] | [3]
HPLM + 10% dialyzed FBS | 474 | 462 | 466
RPMI 5 mM glucose + 10% FBS | 466 | 471 | 468
RPMI 5 mM glucose + 10% dialyzed FBS | 468 | 467 | 468

[4], HPLM + 10% dialyzed FBS
Settings | cell viability [%]
0.000781 µM | 109
0.00234 µM | 105
0.00702 µM | 121
0.0211 µM | 107
0.0632 µM | 117
0.19 µM | 125
0.569 µM | 130
1.71 µM | 117
5.12 µM | 121
15.4 µM | 114
46.1 µM | 117

N#CC1(c2cccc(C(=O)Nc3cc(Oc4ccc5nc(NC(=O)C6CC6)sc5n4)ccc3F)c2Cl)CC1
AUC of viability dose-response curve
Settings | HPLM + 10% dialyzed FBS | RPMI 5 mM glucose + 10% FBS | RPMI 5 mM glucose + 10% dialyzed FBS
[1] | 372 | 362 | 369
[3] | 344 | 370 | 327

cell viability [%]
Settings | [4] | [5] | [6]
HPLM + 10% dialyzed FBS, 0.000781 µM | 93.5 | 114 | 105
HPLM + 10% dialyzed FBS, 0.00234 µM | 95.8 | 111 | 121
HPLM + 10% dialyzed FBS, 0.00702 µM | 106 | 115 | 114
HPLM + 10% dialyzed FBS, 0.0211 µM | 93.9 | 115 | 113
HPLM + 10% dialyzed FBS, 0.0632 µM | 117 | 112 | 119
HPLM + 10% dialyzed FBS, 0.19 µM | 118 | 108 | 93.8
HPLM + 10% dialyzed FBS, 0.569 µM | 102 | 97 | 91
HPLM + 10% dialyzed FBS, 1.71 µM | 94.9 | 72.8 | 56.6
HPLM + 10% dialyzed FBS, 5.12 µM | 82.1 | 66.7 | 39.2
HPLM + 10% dialyzed FBS, 15.4 µM | 46.7 | 29 | 18.2
HPLM + 10% dialyzed FBS, 46.1 µM | 30.6 | 21.1 | 18.2
RPMI 5 mM glucose + 10% FBS, 0.000781 µM | 75.1 | 110 | 115
RPMI 5 mM glucose + 10% FBS, 0.00234 µM | 89 | 114 | 113
RPMI 5 mM glucose + 10% FBS, 0.00702 µM | 90.5 | 110 | 107
RPMI 5 mM glucose + 10% FBS, 0.0211 µM | 74.5 | 108 | 100
RPMI 5 mM glucose + 10% FBS, 0.0632 µM | 84.1 | 108 | 103
RPMI 5 mM glucose + 10% FBS, 0.19 µM | 68.2 | 106 | 105
RPMI 5 mM glucose + 10% FBS, 0.569 µM | 74.5 | 81.2 | 104
RPMI 5 mM glucose + 10% FBS, 1.71 µM | 59.1 | 74.7 | 76.7
RPMI 5 mM glucose + 10% FBS, 5.12 µM | 39.4 | 59.3 | 48.8
RPMI 5 mM glucose + 10% FBS, 15.4 µM | 17.4 | 34.3 | 10.7
RPMI 5 mM glucose + 10% FBS, 46.1 µM | 17.6 | 13.4 | 10.6
RPMI 5 mM glucose + 10% dialyzed FBS, 0.000781 µM | 101 | 105 | 118
RPMI 5 mM glucose + 10% dialyzed FBS, 0.00234 µM | 106 | 113 | 123
RPMI 5 mM glucose + 10% dialyzed FBS, 0.00702 µM | 106 | 118 | 96.5
RPMI 5 mM glucose + 10% dialyzed FBS, 0.0211 µM | 105 | 117 | 98.2
RPMI 5 mM glucose + 10% dialyzed FBS, 0.0632 µM | 105 | 115 | 98.7
RPMI 5 mM glucose + 10% dialyzed FBS, 0.19 µM | 102 | 115 | 90.6
RPMI 5 mM glucose + 10% dialyzed FBS, 0.569 µM | 108 | 90.5 | 72.9
RPMI 5 mM glucose + 10% dialyzed FBS, 1.71 µM | 83.2 | 69 | 70.1
RPMI 5 mM glucose + 10% dialyzed FBS, 5.12 µM | 69.6 | 57.6 | 53.9
RPMI 5 mM glucose + 10% dialyzed FBS, 15.4 µM | 37.1 | 38.7 | 16.9
RPMI 5 mM glucose + 10% dialyzed FBS, 46.1 µM | 26.3 | 23.7 | 15.6
